“Also recorded” adds a separate entry of the source.
Tests used:
p50/p65 complex = experiment: stable HEK293T p50/p65 YFP PCA cell line, nuclear translocation (N:C ratio); type: cell-based; details: 10 micromolar compound, 25 ng/ml TNF 30 minutes
Procedure: Stable cell lines represent the gold standard for HTS since the assays can be reconstructed at any time from frozen stocks of cells. […] First, cells were co-transfected with YFP[2]-p65 encoding vectors, and stable cell lines were selected using 100 micrograms/ml of Hygromycin B (Invitrogen). Selected cell lines were then transfected with YFP[1]-p50. Stable cell lines expressing YFP[1]-p50/YFP[2]-p65 were isolated following double antibiotic selection with 50 μg/ml Hygromycin B and 500 μg/ml Zeocin. Cell clones stably expressing the fusion genes were identified by immunoblot analysis and fluorescence microscopy. A single cell line of each transfectant was selected for further characterization. Fluorescence of these lines is stable over at least 25 passages (data not shown). A stable, MEK/ERK cell line—constructed as described below—was used as a control for TNF effects. Fugene 6 (Roche) was used for all the transfections according to manufacturer's directions. Cells stably expressing YFP[1]-p50/YFP[2]-p65 were seeded at 20,000 cells/well in black-walled poly-lysine coated 96 well plate (Greiner). Twenty-four hours later, the cells were incubated with human TNF-alpha (Roche) for 30 min. Nuclei were stained with Hoechst 33342 (Molecular Probes) at 10 micrograms/ml for 10 min. Cells were rinsed with HBSS (Invitrogen) and kept in the same buffer. Fluorescence was visualized and images were acquired using a Discovery-1 automated fluorescence imager (Molecular Devices, Inc.) equipped with excitation and emission filters 470/35 and 535/60, respectively. […] For the high throughput screening campaign described below, cells were pretreated with compounds (10 micromolar) for 60 minutes and then stimulated with TNFalpha for 30 minutes in the presence of drugs. Cells were then fixed with 2% formaldehyde in HBSS and subsequently stained with Hoechst 33342. All liquid handling was done using a Biomek FX (Beckman) instrument and images were acquired as described above. Images were analyzed using Image J. Translocation is assessed by calculating the nuclear/cytoplasmic ratio of the mean fluorescence intensity for a population of cells (denoted as n) over several images for a given condition.
Genesis Plus is a collection of 960 diverse compounds, and includes compounds with known toxicity or fluorescent properties. Inclusion of compounds with such properties is important in HTS assay validation, as they might complicate analysis. The final concentration of compounds in wells was 10 micromolar, and all wells contained 0.5% DMSO concentration. […] Following fixation and staining of nuclei, fluorescence was analyzed on the automated fluorescent microscopy platform (Discovery 1; Universal Imaging/Molecular Devices Corp.). […]

Chk1/p53 interaction = molecular target: T1, Chk1/p53 interaction (Homo sapiens, UniProt O14757); experiment: beta-lactamase PCA (BLA PCA) for Chk1/p53 in HEK293E cells; type: cell-based; details: HEK293E cells treated with 300 nM camptothecin; 10 micromolar DBH, 50 micromolar Go6976
T1 construct: expressed in transfected cells; host or cells: HEK293E
T1 sequence (O14757 1-476): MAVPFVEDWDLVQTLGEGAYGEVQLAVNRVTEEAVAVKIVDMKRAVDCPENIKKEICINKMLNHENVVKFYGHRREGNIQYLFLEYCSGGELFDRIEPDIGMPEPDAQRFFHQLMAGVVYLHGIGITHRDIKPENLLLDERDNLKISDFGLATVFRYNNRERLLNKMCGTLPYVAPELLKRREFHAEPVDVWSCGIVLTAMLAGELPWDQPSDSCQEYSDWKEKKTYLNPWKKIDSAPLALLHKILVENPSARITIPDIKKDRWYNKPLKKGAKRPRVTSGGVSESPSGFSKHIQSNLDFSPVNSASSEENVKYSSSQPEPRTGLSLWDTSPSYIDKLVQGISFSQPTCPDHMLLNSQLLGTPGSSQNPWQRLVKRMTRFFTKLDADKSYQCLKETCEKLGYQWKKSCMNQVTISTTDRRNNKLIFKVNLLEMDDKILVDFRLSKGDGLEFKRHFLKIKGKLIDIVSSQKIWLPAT
Procedure: For the BLA PCA, the genes of interest—which were known to be involved in DNA damage response pathways—were fused to BLA reporter fragments, and co-transfected in pairs (in 6 replicates) into HEK293E cells. Specifically, interactions between two key proteins, p53 and the checkpoint kinase, Chk1, were evaluated for their response to the DNA damaging agent camptothecin (CPT) and various known drugs or compounds. Full length cDNAs (sequence verified) encoding p53 [NM_000546] and Chk1 [NM_001274] were amplified by PCR and the resulting fragments fused in-frame to the 3′-end of BLA[1] or BLA[2] through a flexible 10 amino acid linker. The resulting BLA[1]-p53, BLA[2]-p53, and BLA[2]-Chk1 constructs contained an EBNA-1 origin for episomal replication in HEK293E cells, but no selectable markers for long term maintenance in cell culture. All constructs were sequenced to confirm the integrity of the reporter-gene fusion prior to use in assays. […] Hydrolysis of the beta-lactam ring by reconstituted BLA releases free coumarin which has a blue fluorescence. […] For each protein pair, the rate of hydrolysis of the substrate was determined immediately after addition of substrate by a kinetic assay on a Molecular Devices Gemini XS plate reader. Accumulated fluorescent substrate was excited at 345 nm and detected at 440 nm every 10 minutes for a 90 minute period. […]

p53/p53 interaction = experiment: high-content IFP PCA for p53/p53, nuclear mean fluorescence; type: cell-based, human; details: Trichostatin A 0.5 micromolar; for effect on p53/p53 interaction (nuclear mean fluorescence) in the presence of CPT: 500 nM CPT 16 hours, MS-275 10 micromolar, HA 14-1 2 micromolar; for effect on p53/p53 interaction in both assays (absence and presence of CPT): unstimulated and 500 nM CPT-stimulated, LY294002 25 micromolar, SB 203580 25 micromolar, Geldanamycin 2.5 micromolar
Source text: Open reading frames of full-length human p53 were fused in-frame to the 5′-end of IFP[1] and the 3′-end of IFP[2] to generate the following constructs in a pcDNA3.1 (Invitrogen) backbone: p53-IFP[1] and IFP[2]-p53. The final p53-IFP[1] construct contained a Zeocin selectable marker, while the IFP[2]-p53 construct contained a hygromycin selectable marker. All fusions were through a flexible linker encoding a 10-amino acid peptide (GlyGlyGlyGlySer)2, also referred to throughout as (GGGGS)2 (SEQ ID No.1). DNAs from recombinant constructs were isolated on a Beckman FX robotic workstation (Beckman Coulter, Fullerton, Calif.) using Qiagen Turbo BioRobot Prep kits or manually using Qiagen Midi Prep kits. Isolated DNAs were quantitated and then normalized to a concentration of 50 ng/microliter.
Approximately 24 hours prior to transfection cells were seeded into 96 well poly-D-Lysine coated plates (Greiner) using a Multidrop 384 peristaltic pump system (Thermo Electron Corp., Waltham, Mass.) at a density of 7,500 cells per well. A total of 100 ng of DNA (p53–IFP[1] and IFP[2]-p53) was co-transfected using Fugene 6 (Roche) according to the manufacturer's protocol. Cells expressing the PCA pair in the absence of stimulation were incubated with medium containing drugs for 30 minutes, 90 minutes, and 8 hours. Alternatively, cells stimulated with camptothecin (CPT) were pre-treated with drugs for 2 hours, then incubated with 500 nM CPT for an additional 16 hours in the presence of the following test compounds that were known or suspected to affect the p53 pathway: CPT, genistein, Trichostatin A, MS-275, LY294002, SB203580, HA14-1, or Geldanamycin, at the concentrations indicated in the Legend to FIG. 4. […] Fluorescence resulting from IFP PCA was captured using the Discovery-1automated fluorescence imager (Molecular Devices, Inc.) equipped with a robot arm (CRS Catalyst Express; Thermo Electron Corp., Waltham, Mass.). Images were acquired for YFP fluorescence (excitation filter: 480/40 nm; emission filter 535/50 nm), Hoechst fluorescence (excitation filter: 360/40 nm; emission filter 465/30 nm), and Texas Red fluorescence (excitation filter: 560/50 nm; emission filter 650/40 nm). […]
Automated image analysis was performed using Image J freeware to quantitate the level of fluorescence contributed by the PCA in each image. For the p53:p53 PCA, background contributed by cellular auto-fluorescence was subtracted from each image, then the mean pixel fluorescence intensity was determined within the nucleus of each cell. […] Quantitative values for the unstimulated PCA are shown in mauve, with data from the CPT-stimulated assay shown in blue. […]

## Cn1c(=O)[nH]c(=O)c2[nH]cnc21 [3-methylxanthine]
p50/p65 complex
  result in Genesis Plus library screen of p50/p65 PCA: called as hits

## NC1=N/C(=C2/CCNC(=O)c3[nH]ccc32)C(=O)N1 [DBH]
Chk1/p53 interaction
  effect on the interaction between Chk1 and p53 (mean rate of hydrolysis of BLA substrate): significant effects

## Cn1c2ccccc2c2c3c(c4c5ccccc5n(CCC#N)c4c21)CNC3=O [Go6976]
Chk1/p53 interaction
  effect on the interaction between Chk1 and p53 (mean rate of hydrolysis of BLA substrate): significant effects

## Nc1ccccc1NC(=O)c1ccc(CNC(=O)OCc2cccnc2)cc1 [MS-275]
p53/p53 interaction
  effect on p53/p53 interaction (nuclear mean fluorescence) in the presence of CPT: significantly stimulated

## C[S+]([O-])c1ccc(-c2nc(-c3ccncc3)c(-c3ccc(F)cc3)[nH]2)cc1 (centres unmarked) [SB 203580]
p53/p53 interaction
  effect on p53/p53 interaction in both assays (absence and presence of CPT): increased association

## CC(/C=C/C(=O)NO)=C\[C@@H](C)C(=O)c1ccc(N(C)C)cc1 [Trichostatin A]
p53/p53 interaction
  effect on p53/p53 interaction (nuclear mean fluorescence) in the presence of CPT: dramatic increase; also recorded: significantly stimulated
  effect on p53/p53 interaction in both assays (absence and presence of CPT): potentiating effect

## C=C(C)[C@H]1Cc2c(ccc3c2O[C@@H]2COc4cc(OC)c(OC)cc4[C@@H]2C3=O)O1 [rotenone]
p50/p65 complex
  result in Genesis Plus library screen of p50/p65 PCA: called as hits

Reference: patent publication US7062219B2, “Protein fragment complementation assays for high-throughput and high-content screening” (Odyssey Thera Inc., priority 1997, dated 2006)
